In patent publication US8063075B2, “Pyrrolidine ether derivatives as NK3 receptor antagonists” (Hoffmann-La Roche Inc., priority 2008, dated 2011):

biological target: T1, recombinant human NK3 receptor (Homo sapiens, UniProt P29371); experiment: [3H]SR142801 competition binding assay; details: membranes from HEK293 cells transiently expressing hNK3; [3H]SR142801 at its KD; 75 min RT; read-out: Data [μM] (affinity constant Ki, hNK3 receptor binding)
T1 construct: expressed in transfected cells; host or cells: HEK293 cells (transient expression), membranes
T1 sequence (P29371 1-465): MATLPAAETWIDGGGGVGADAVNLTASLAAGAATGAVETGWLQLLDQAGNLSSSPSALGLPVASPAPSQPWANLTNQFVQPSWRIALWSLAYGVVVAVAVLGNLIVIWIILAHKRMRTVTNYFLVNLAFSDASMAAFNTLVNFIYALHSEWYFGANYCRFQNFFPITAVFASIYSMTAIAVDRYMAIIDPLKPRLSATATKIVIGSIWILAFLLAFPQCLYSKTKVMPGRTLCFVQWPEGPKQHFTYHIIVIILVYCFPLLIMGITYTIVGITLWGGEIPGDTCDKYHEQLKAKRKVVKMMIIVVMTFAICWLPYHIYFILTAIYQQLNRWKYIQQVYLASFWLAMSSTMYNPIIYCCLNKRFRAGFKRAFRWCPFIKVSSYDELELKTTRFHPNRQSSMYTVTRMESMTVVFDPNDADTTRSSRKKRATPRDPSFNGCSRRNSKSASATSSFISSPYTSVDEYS
Experimental: [^3H]SR142801 Competition Binding Assay
hNK3 receptor binding experiment were performed using [^3H]SR142801 (Catalog No. TRK1035, specific activity: 74.0 Ci/mmol, Amersham, GE Healthcare UK limited, Buckinghamshire, UK) and membrane isolated from HEK293 cells transiently expressing recombinant human NK3 receptor. After thawing, the membrane homogenates were centrifuged at 48,000×g for 10 min at 4° C., the pellets were resuspended in the 50 mM Tris-HCl, 4 mM MnCl2, 1 μM phosphoramidon, 0.1% BSA binding buffer at pH 7.4 to a final assay concentration of 5 μg protein/well. […] At the end of the incubation, membranes were filtered onto unitfilter (96-well white microplate with bonded GF/C filter preincubated 1 h in 0.3% PEI+0.3% BSA, Packard BioScience, Meriden, Conn.) with a Filtermate 196 harvester (Packard BioScience) and washed 4 times with ice-cold 50 mM Tris-HCl, pH 7.4 buffer. Nonspecific binding was measured in the presence of 10 μM SB222200 for both radioligands. The radioactivity on the filter was counted (5 min) on a Packard Top-count microplate scintillation counter with quenching correction after addition of 45 μl of microscint 40 (Can berra Packard S. A., Zürich, Switzerland) and shaking for 1 h. Inhibition curves were fitted according to the Hill equation: y=100/(1+(x/IC50)^nH), where nH=slope factor using Excel-fit 4 software (Microsoft). IC50 values were derived from the inhibition curve and the affinity constant (Ki) values were calculated using the Cheng-Prussoff equation Ki=IC50/(1+[L]/KD) where [L] is the concentration of radioligand and KD is its dissociation constant at the receptor, derived from the saturation isotherm. All experiments were performed in duplicate and the mean±standard error (SEM) of the individual Ki values was calculated.

Row | Ki | Compound
1 | 0.0047 µM | CC(=O)N1CCC(C(=O)N2C[C@H]([C@H](C)Oc3ccc(Cl)cn3)[C@@H](c3ccc(Cl)c(Cl)c3)C2)CC1 (racemic) [Example 1, 1-{4-[(3RS,4SR)-3-[(SR)-1-(5-Chloro-pyridin-2-yloxy)-ethyl]-4-(3,4-dichloro-phenyl)-pyrrolidine-1-carbonyl]-piperidin-1-yl}-ethanone]
2 | 0.0076 µM | CC(=O)N1CCC(C(=O)N2C[C@H]([C@H](C)Oc3ccc(C#N)cn3)[C@@H](c3ccc(Cl)c(Cl)c3)C2)CC1 (racemic) [Example 2, 6-{(SR)-1-[(3RS,4SR)-1-(1-Acetyl-piperidine-4-carbonyl)-4-(3,4-dichloro-phenyl)-pyrrolidin-3-yl]-ethoxy}-nicotinonitrile]
3 | 0.0012 µM | C[C@H](Oc1ccc(Cl)cn1)[C@H]1CN(C(=O)C2CCN(C(=O)C3CCC3)CC2)C[C@@H]1c1ccc(Cl)c(Cl)c1 (racemic) [Example 3, [(3RS,4SR)-3-[(SR)-1-(5-Chloro-pyridin-2-yloxy)-ethyl]-4-(3,4-dichloro-phenyl)-pyrrolidin-1-yl]-(1-cyclobutanecarbonyl-piperidin-4-yl)-methanone]
4 | 0.0095 µM | COC(=O)N[C@H]1CC[C@H](C(=O)N2C[C@H]([C@H](C)Oc3ccc(Cl)cn3)[C@@H](c3ccc(Cl)c(Cl)c3)C2)CC1 (racemic) [Example 5, {4-[(3RS,4SR)-3-[(SR)-1-(5-Chloro-pyridin-2-yloxy)-ethyl]-4-(3,4-dichloro-phenyl)-pyrrolidine-1-carbonyl]-cyclohexyl}-carbamic acid methyl ester]
5 | 0.0058 µM | COC[C@H]1CC[C@H](C(=O)N2C[C@H]([C@H](C)Oc3ccc(Cl)cn3)[C@@H](c3ccc(Cl)c(Cl)c3)C2)CC1 (racemic) [Example 6, [(3RS,4SR)-3-[(SR)-1-(5-Chloro-pyridin-2-yloxy)-ethyl]-4-(3,4-dichloro-phenyl)-pyrrolidin-1-yl]-(4-methoxymethyl-cyclohexyl)-methanone]
6 | 0.009 µM | C#C[C@H]1CC[C@H](C(=O)N2C[C@H]([C@H](C)Oc3ccc(Cl)cn3)[C@@H](c3ccc(Cl)c(Cl)c3)C2)CC1 (racemic) [Example 10, [(3RS,4SR)-3-[(SR)-1-(5-Chloro-pyridin-2-yloxy)-ethyl]-4-(3,4-dichloro-phenyl)-pyrrolidin-1-yl]-(4-ethynyl-cyclohexyl)-methanone]
7 | 0.0061 µM | CC(C)CN1CCC(C(=O)N2C[C@H]([C@H](C)Oc3ccc(Cl)cn3)[C@@H](c3ccc(Cl)c(Cl)c3)C2)CC1 (racemic) [Example 11, [(3RS,4SR)-3-[(SR)-1-(5-Chloro-pyridin-2-yloxy)-ethyl]-4-(3,4-dichloro-phenyl)-pyrrolidin-1-yl]-(1-isobutyl-piperidin-4-yl)-methanone]
8 | 0.0092 µM | C[C@H](Oc1ccc(Cl)cn1)[C@H]1CN(C(=O)C2CCC(=O)CC2)C[C@@H]1c1ccc(Cl)c(Cl)c1 (racemic) [Example 12, 4-[(3RS,4SR)-3-[(SR)-1-(5-Chloro-pyridin-2-yloxy)-ethyl]-4-(3,4-dichloro-phenyl)-pyrrolidine-1-carbonyl]-cyclohexanone]
9 | 0.0044 µM | C[C@H](Oc1ccc(C#N)cn1)[C@H]1CN(C(=O)C2CCN(C(=O)OC(C)(C)C)CC2)C[C@@H]1c1ccc(Cl)c(Cl)c1 (racemic) [Example 13, 4-[(3RS,4SR)-3-[(SR)-1-(5-Cyano-pyridin-2-yloxy)-ethyl]-4-(3,4-dichloro-phenyl)-pyrrolidine-1-carbonyl]-piperidine-1-carboxylic acid tert-butyl ester]
10 | 0.0049 µM | C[C@H](Oc1ccc(C#N)cn1)[C@H]1CN(C(=O)C2CCN(C(=O)C3CC3)CC2)C[C@@H]1c1ccc(Cl)c(Cl)c1 (racemic) [Example 14, 6-{(SR)-1-[(3RS,4SR)-1-(1-Cyclopropanecarbonyl-piperidine-4-carbonyl)-4-(3,4-dichloro-phenyl)-pyrrolidin-3-yl]-ethoxy}-nicotinonitrile]
11 | 0.0046 µM | C[C@H](Oc1ccc(C#N)cn1)[C@H]1CN(C(=O)C2CCN(C(=O)C3(C)CC3)CC2)C[C@@H]1c1ccc(Cl)c(Cl)c1 (racemic) [Example 17, 6-((SR)-1-{(3RS,4SR)-4-(3,4-Dichloro-phenyl)-1-[1-(1-methyl-cyclopropanecarbonyl)-piperidine-4-carbonyl]-pyrrolidin-3-yl}-ethoxy)-nicotinonitrile]
12 | 0.0077 µM | C[C@H](Oc1ccc(C#N)cn1)[C@H]1CN(C(=O)C2CCN(C(=O)C3(N)CC3)CC2)C[C@@H]1c1ccc(Cl)c(Cl)c1 (racemic) [Example 19, 6-{(SR)-1-[(3RS,4SR)-1-[1-(1-Amino-cyclopropanecarbonyl)-piperidine-4-carbonyl]-4-(3,4-dichloro-phenyl)-pyrrolidin-3-yl]-ethoxy}-nicotinonitrile]
13 | 0.0026 µM | C[C@H](Oc1ccc(C#N)cn1)[C@H]1CN(C(=O)C2CCN(C(=O)C3CCC3)CC2)C[C@@H]1c1ccc(Cl)c(Cl)c1 (racemic) [Example 20, 6-{(SR)-1-[(3RS,4SR)-1-(1-Cyclobutanecarbonyl-piperidine-4-carbonyl)-4-(3,4-dichloro-phenyl)-pyrrolidin-3-yl]-ethoxy}-nicotinonitrile]
14 | 0.0021 µM | C[C@H](Oc1ccc(C#N)cn1)[C@H]1CN(C(=O)C2CCN(C(=O)C3CC(=O)C3)CC2)C[C@@H]1c1ccc(Cl)c(Cl)c1 (racemic) [Example 21, 6-((SR)-1-{(3RS,4SR)-4-(3,4-Dichloro-phenyl)-1-[1-(3-oxo-cyclobutanecarbonyl)-piperidine-4-carbonyl]-pyrrolidin-3-yl}-ethoxy)-nicotinonitrile]
15 | 0.0036 µM | CCC(=O)N1CCC(C(=O)N2C[C@H]([C@H](C)Oc3ccc(C#N)cn3)[C@@H](c3ccc(Cl)c(Cl)c3)C2)CC1 (racemic) [Example 22, 6-{(SR)-1-[(3RS,4SR)-4-(3,4-Dichloro-phenyl)-1-(1-propionyl-piperidine-4-carbonyl)-pyrrolidin-3-yl]-ethoxy}-nicotinonitrile]
16 | 0.0075 µM | C[C@H](Oc1ccc(C#N)cn1)[C@H]1CN(C(=O)C2CCN(C(=O)CC#N)CC2)C[C@@H]1c1ccc(Cl)c(Cl)c1 (racemic) [Example 23, 6-{(SR)-1-[(3RS,4SR)-1-[1-(2-Cyano-acetyl)-piperidine-4-carbonyl]-4-(3,4-dichloro-phenyl)-pyrrolidin-3-yl]-ethoxy}-nicotinonitrile]
17 | 0.0036 µM | COCC(=O)N1CCC(C(=O)N2C[C@H]([C@H](C)Oc3ccc(C#N)cn3)[C@@H](c3ccc(Cl)c(Cl)c3)C2)CC1 (racemic) [Example 24, 6-((SR)-1-{(3RS,4SR)-4-(3,4-Dichloro-phenyl)-1-[1-(2-methoxy-acetyl)-piperidine-4-carbonyl]-pyrrolidin-3-yl}-ethoxy)-nicotinonitrile]
18 | 0.0028 µM | C[C@H](Oc1ccc(C#N)cn1)[C@H]1CN(C(=O)[C@H]2CC[C@H](N(C)C(=O)OC(C)(C)C)CC2)C[C@@H]1c1ccc(Cl)c(Cl)c1 (racemic) [Example 42, {4-[(3RS,4SR)-3-[(SR)-1-(5-Cyano-pyridin-2-yloxy)-ethyl]-4-(3,4-dichloro-phenyl)-pyrrolidine-1-carbonyl]-cyclohexyl}-methyl-carbamic acid tert-butyl ester]
19 | 0.007 µM | C[C@H](Oc1ccc(C#N)cn1)[C@H]1CN(C(=O)[C@H]2CC[C@H](NC(=O)OC(C)(C)C)CC2)C[C@@H]1c1ccc(Cl)c(Cl)c1 (racemic) [Example 43, {4-[(3RS,4SR)-3-[(SR)-1-(5-Cyano-pyridin-2-yloxy)-ethyl]-4-(3,4-dichloro-phenyl)-pyrrolidine-1-carbonyl]-cyclohexyl}-carbamic acid tert-butyl ester]
20 | 0.004 µM | CC(=O)N(C)[C@H]1CC[C@H](C(=O)N2C[C@H]([C@H](C)Oc3ccc(C#N)cn3)[C@@H](c3ccc(Cl)c(Cl)c3)C2)CC1 (racemic) [Example 45, N-{4-[(3RS,4SR)-3-[(SR)-1-(5-Cyano-pyridin-2-yloxy)-ethyl]-4-(3,4-dichloro-phenyl)-pyrrolidine-1-carbonyl]-cyclohexyl}-N-methyl-acetamide]
